Source: US9815854B2, “3-(3H-imidazo[4,5-B]pyridin-2-yl)-1H-pyrazolo[3,4-C]pyridine and therapeutic uses thereof” (Samumed, LLC, priority 2014, dated 2017)
pEC50, pIC50: −log10 of the molar value.

system: Wnt activity (Sp5-Luc reporter, TCF/LEF binding sites) in SW480 colon carcinoma cells; assay: Sp5-Luc Wnt reporter gene screening assay in SW480 colon carcinoma cells; type: cell-based, human; settings: not given
Source text: The screening assay for Wnt activity is described as follows. Reporter cell lines can be generated by stably transducing cancer cell lines (e.g., colon cancer) or primary cells (e.g., IEC-6 intestinal cells) with a lentiviral construct that includes a Wnt-responsive promoter driving expression of the firefly luciferase gene.
SW480 colon carcinoma cells were transduced with a lentiviral vector expressing luciferase with a human Sp5 promoter consisting of a sequence of eight TCF/LEF binding sites. SW480 cells stably expressing the Sp5-Luc reporter gene and a hygromycin resistance gene were selected by treatment with 150 μg/ml of hygroinycin for 7 days. These stably transduced SW480 cells were expanded in cell culture and used for all further screening activities. For Sp5-Luc reporter gene assays, the cells were plated at 10,000 cells/well in 96-well plates with growth medium containing 10% fetal calf serum and incubated overnight at 37° C. and 5% CO2. Each compound was dissolved in DMSO as a 10 mM stock in standard j-vials and used to prepare compound source plates in dose-response format with 3-fold serial dilutions and a 10 mM top concentration. Compound transfer from serially diluted source plates to assay plates containing the cells was accomplished using a pintool (Multimek 96, Beckman equipped with V&P Scientific FP1S50H pins) based liquid handling protocol. This protocol used a slotted pin to transfer 50 nl of compound from a source plate well to an assay plate well containing 50 μl of cells in growth medium. […] Control wells received 50 nl of DMSO treatment for nommlization and calculating IC50 values. The treated cells were incubated at 37° C. and 5% CO2 for an additional forty-two hours. Following incubation, the growth medium was removed and 50 μl of BrightGlo luminescence reagent (Promega) was added to each well of the 96-well assay plates. The plates were placed on an orbital shaker for 5 min and then luminescence was quantified on the Victor3 (Perkin Elmer) plate reader. Readings were normalized to DMSO only treated cells, and normalized activities were utilized for IC50 calculations using the dose-response log (inhibitor) vs. response—variable slope (four parameters) nonlinear regression feature available in GraphPad Prism 5.0 or 6.0.

| pIC50 | SMILES |
| --- | --- |
| < 6.00 | Fc1cccc(-c2ccnc3[nH]c(-c4n[nH]c5cnc(-c6ccncc6)cc45)nc23)c1 [Compound 952, -(7-(3-Fluorophenyl)-3H-imidazo[4,5-b]pyridin-2-yl)-5-(pyridin-4-yl)-1 H-pyrazolo[3,4-c]pyridine] |
| < 5.00 | CC(C)CC(=O)Nc1cncc(-c2cc3c(-c4nc5c(-c6cc(F)cc(OCCN(C)C)c6)ccnc5[nH]4)n[nH]c3cn2)c1 [Compound 1262] |

same assay, conditions: Homo sapiens

| pIC50 | SMILES |
| --- | --- |
| 7.07 | CN(C)c1cncc(-c2cc3c(-c4nc5c(-c6cccc(F)c6)ccnc5[nH]4)n[nH]c3cn2)c1 [Compound 7, 5-(3-(7-(3-Fluorophenyl)-3H-imidazo[4,5-b]pyridin-2-yl)-1H-pyrazolo[3,4-c]pyridin-5-yl)-N,N-dimethylpyridin-3-amine] |
| 6.81 | CC(C)(C)C(=O)Nc1cncc(-c2cc3c(-c4nc5c(-c6cccc(F)c6)ccnc5[nH]4)n[nH]c3cn2)c1 [Compound 8, N-(5-(3-(7-(3-Fluorophenyl)-3H-imidazo[4,5-b]pyridin-2-yl)-1H-pyrazolo[3,4-c]pyridin-5-yl)pyridin-3-yl)pivalamide] |
| 7.11 | CC(C)C(=O)Nc1cncc(-c2cc3c(-c4nc5c(-c6ccccc6F)ccnc5[nH]4)n[nH]c3cn2)c1 [Compound 61, N-(5-(3-(7-(2-Fluorophenyl)-3H-imidazo[4,5-b]pyridin-2-yl)-1H-pyrazolo[3,4-c]pyridin-5-yl)pyridin-3-yl)isobutyramide] |
| < 5.00 | c1cncc(-c2ccnc3[nH]c(-c4n[nH]c5cnc(-c6cncc(CN7CCCCC7)c6)cc45)nc23)c1 [Compound 93, 5-(5-(Piperidin-1-ylmethyl)pyridin-3-yl)-3-(7-(pyridin-3-yl)-3H-imidazo[4,5-b]pyridin-2-yl)-1H-pyrazolo[3,4-c]pyridine] |
| 5.99 | CN(C)c1cncc(-c2cc3c(-c4nc5c(N6CCCCC6)ccnc5[nH]4)n[nH]c3cn2)c1 [Compound 163, N,N-Dimethyl-5-(3-(7-(piperidin-1-yl)-3H-imidazo[4,5-b]pyridin-2-yl)-1H-pyrazolo[3,4-c]pyridin-5-yl)pyridin-3-amine] |
| 7.21 | CC(C)(C)C(=O)Nc1cncc(-c2cc3c(-c4nc5c(-c6ccc(F)s6)ccnc5[nH]4)n[nH]c3cn2)c1 [Compound 346, N-(5-(3-(7-(5-Fluorothiophen-2-yl)-3H-imidazo-[4,5-b]pyridin-2-yl)-1H-pyrazolo[3,4-c]pyridin-5-yl)pyridin-3-yl)pivalamide] |
| 6.81 | Fc1ccc(-c2ccnc3[nH]c(-c4n[nH]c5cnc(-c6cncc(CN7CCCC7)c6)cc45)nc23)s1 [Compound 352, 3-(7-(5-Fluorothiophen-2-yl)-3H-imidazo[4,5-b]pyridin-2-yl)-5-(5-(pyrrolidin-1-ylmethyl)pyridin-3-yl)-1H-pyrazolo[3,4-c]pyridine] |
| < 5.00 | CCNCc1cncc(-c2cc3c(-c4nc5c(-c6cc(F)cc(NCCN(C)C)c6)ccnc5[nH]4)n[nH]c3cn2)c1 [Compound 448, N^1-(3-(2-(5-(5-((Ethylamino)methyl)pyridin-3-yl)-1H-pyrazolo[3,4-c]pyridin-3-yl)-3H-imidazo[4,5-b]pyridin-7-yl)-5-fluorophenyl)-N^2,N^2-dimethylethane-1,2-diamine] |
| 6.86 | CCCCC(=O)Nc1cncc(-c2cc3c(-c4nc5c(-c6cc(F)cc(NCCN(C)C)c6)ccnc5[nH]4)n[nH]c3cn2)c1 [Compound 460] |
| 5.73 | Fc1cccc(-c2ccnc3[nH]c(-c4n[nH]c5cnc(C6CCNCC6)cc45)nc23)c1 [Compound 937, 3-(7-(3-Fluorophenyl)-3H-imidazo[4,5-b]pyridin-2-yl)-5-(piperidin-4-yl)-1H-pyrazolo[3,4-c]pyridine] |
| 6.02 | Fc1cccc(-c2ccnc3[nH]c(-c4n[nH]c5cnc(-c6cncc(OC7CCCCC7)c6)cc45)nc23)c1 [Compound 943, 5-(5-(Cyclohexyloxy)pyridin-3-yl)-3-(7-(3-fluorophenyl)-3H-imidazo[4,5-b]pyridin-2-yl)-1H-pyrazolo[3,4-c]pyridine] |
| < 5.00 | Fc1cccc(-c2ccnc3[nH]c(-c4n[nH]c5cnc(-c6cncc(OC7CCNCC7)c6)cc45)nc23)c1 [Compound 944, 3-(7-(3-Fluorophenyl)-3H-imidazo[4,5-b]pyridin-2-yl)-5-(5-(piperidin-4-yloxy)pyridin-3-yl)-1H-pyrazolo[3,4-c]pyridine] |
| < 5.00 | Fc1cccc(-c2ccnc3[nH]c(-c4n[nH]c5cnc(-c6cncc(OCCN7CCCC7)c6)cc45)nc23)c1 [Compound 946, 3-(7-(3-Fluorophenyl)-3H-imidazo[4,5-b]pyridin-2-yl)-5-(5-(2-(pyrrolidin-1-yl)ethoxy)pyridin-3-yl)-1H-pyrazolo[3,4-c]pyridine] |
| 5.35 | Fc1cccc(-c2ccnc3[nH]c(-c4n[nH]c5cnc(-c6cncc(OCc7ccccc7)c6)cc45)nc23)c1 [Compound 950, 5-(5-(Benzyloxy)pyridin-3-yl)-3-(7-(3-fluorophenyl)-3H-imidazo[4,5-b]pyridin-2-yl)-1H-pyrazolo[3,4-c]pyridine] |
| < 5.00 | O=C(CC1CCCCC1)Nc1cncc(-c2cc3c(-c4nc5c(-c6cccc(F)c6)ccnc5[nH]4)n[nH]c3cn2)c1 [Compound 951, 2-Cyclohexyl-N-(5-(3-(7-(3-fluorophenyl)-3H-imidazo[4,5-b]pyridin-2-yl)-1H-pyrazolo[3,4-c]pyridin-5-yl)pyridin-3-yl)acetamide] |
| 6.60 | CC(C)CC(=O)Nc1cncc(-c2cc3c(-c4nc5c(-c6cc(O)cc(F)c6)ccnc5[nH]4)n[nH]c3cn2)c1 [Compound 1350, N-(5-(3-(7-(3-Fluoro-5-hydroxyphenyl)-3H-imidazo[4,5-b]pyridin-2-yl)-1H-pyrazolo[3,4-c]pyridin-5-yl)pyndin-3-yl)-3-methylbutanamide] |
| 6.19 | CN(C)CC(=O)Nc1cncc(-c2cc3c(-c4nc5c(-c6cccc(F)c6)ccnc5[nH]4)n[nH]c3cn2)c1 [Compound 1437, 2-(Dimethylamino)-N-(5-(3-(7-(3-fluorophenyl)-3H-imidazo[4,5-b]pyridin-2-yl)-1H-pyrazolo[3,4-c]pyridin-5-yl)pyridin-3-yl)acetamide] |

| SMILES | pIC50 |
| --- | --- |
| Fc1cccc(-c2ccnc3[nH]c(-c4n[nH]c5cnc(C6=CCNCC6)cc45)nc23)c1 [Compound 938, 3-(7-(3-Fluorophenyl)-3H-imidazo[4,5-b]pyridin-2-yl)-5-(1,2,3,6-tetrahydropyridin-4-yl)-1H-pyrazolo[3,4-c]pyridine] | < 6.00 |

system: primary human fibroblasts derived from IPF patients (LL29 cells); assay: Inhibition of the fibrotic process in TGF-β1-treated primary human fibroblasts from IPF patients (αSMA staining); type: cell-based; settings: Fibroblast, 96 h, TGF-β1 20 ng/mL, 4 days, read-out: Inhibition of fibrosis EC50
Source text: The above synthesized compounds were screened using primary human fibroblasts (derived from IPF patients) treated with TGF-β1 to determine their ability to inhibit the fibrotic process.
Human Fibroblast Celt Culture: Primary human fibroblasts derived from IPF patients (LL29 cells) [^1Xiaoqiu Liu, et.al., “Fibrotic Luna Fibroblasts Show Blunted Inhibition by cAMP Due to Deficient cAMP Response Element-Binding Protein Phosphorylation”, Journal of Pharmacology and Experimental Therapeutics (2005), 315(2), 678-687; ^2Watts, K. L., et.al., “RhoA signaling modulates cyclin D1 expression in human lung fibroblasts; implications for idiopathic pulmonary fibrosis”, Respiratory Research (2006), 7(1), 88] were obtained from American Type Culture Collection (ATCC) and expanded in F12 medium supplemented with 15% Fetal Bovine Serum and Penicillin/Streptomycin.
Compound Screening: Each compound was dissolved in DMSO as a 10 mM stock and used to prepare compound source plates. Serial dilution (1:2, 11-point dose-response curves from 10 μM to […]) and compound transfer was performed using the ECHO 550 (Lahcyte, Sunnyvale, Calif.) into 384-well clear bottom assay plates (Greiner Bio-One) with appropriate DMSO backfill fhr a final DMSO concentration of 0.1%. LL29 cells were plated at 1,500 cells/well in 80 μl/well F12 medium supplemented with 1% Fetal Bovine Serum. One hour after addition of the cells. TGF-β1 (Peprotech; 20 ng/mL) was added to the plates to induce fibrosis (ref. 1 and 2 above), Wells treated with TGF-β1 and containing DMSO were used as controls. Cells were incubated at 37° C. and 5% CO2 for 4 days. Following incubation for 4 days, SYTOX green nucleic acid stain (Life Technologies [Thermo Fisher Scientific]) was added to the wells at a final concentration of 1 uM and incubated at room temperature for 30 min. Cells were then fixed using 4% formaldehyde (Electron Microscopy Sciences), washed 3 times with PBS followed by blocking and penneabilization using 3% Bovine Serum Albumin (BSA; Sigma) and 0.3% Triton X-100 (Sigma) in PBS. Cells were then stained with antibody specific to α-smooth muscle actin (αSMA; Abeam) (ref 1 and 2 above) in 3% Bovine Serum Albumin (BSA; Sigma) and 0.3% Triton X-100 (Sigma) in PBS, and incubated overnight at 4° C. Cells were then washed 3 times with PBS, followed by incubation with Alexa Flor-647 conjugated secondary antibody (Life Technologies [Thermo Fisher Scientific]) and DAPI at room temperature for 1 hour, Cells were then washed 3 times with PBS and plates were sealed for imaging. αSMA staining was imaged by excitation at 630 nm and emission at 665 nm and quantified using the Compartmental Analysis program on the CellInsight CX5 (Thermo Scientific). Dead or apoptotic cells were excluded from analysis based on positive SYTOX green staining. % of total cells positive for αSMA were counted in each well and normalized to the average of 11 wells treated with TGF-β1 on the same plate using Dotmatics' Studies Software. The normalized averages (fold change over untreated) of 3 replicate wells for each compound concentration were used to create dose-responses curves and EC50 values were calculated using non-linear regression curve fit in the Dotmatics' Studies Software. The EC50 values are reported.

| SMILES | pEC50 |
| --- | --- |
| CN(C)c1cncc(-c2cc3c(-c4nc5c(-c6cccc(F)c6)ccnc5[nH]4)n[nH]c3cn2)c1 [Compound 7, 5-(3-(7-(3-Fluorophenyl)-3H-imidazo[4,5-b]pyridin-2-yl)-1H-pyrazolo[3,4-c]pyridin-5-yl)-N,N-dimethylpyridin-3-amine] | 6.39 |
| CC(C)(C)C(=O)Nc1cncc(-c2cc3c(-c4nc5c(-c6cccc(F)c6)ccnc5[nH]4)n[nH]c3cn2)c1 [Compound 8, N-(5-(3-(7-(3-Fluorophenyl)-3H-imidazo[4,5-b]pyridin-2-yl)-1H-pyrazolo[3,4-c]pyridin-5-yl)pyridin-3-yl)pivalamide] | 7.12 |
